Reference: patent US20230218255A1, “IMAGING OF MYELOMA BONE LESIONS” (Blue Earth Diagnostics Limited, priority 2022, published 2023)

System: myeloma bone lesion
Test: [^18F]-FACBC PET and fused PET/CT imaging of the lumbar vertebrae
Format: in vivo
Conditions: coronal PET and PET/CT of lumbar vertebrae; PET acquisition started 5 minutes after administration of 319 MBq
Method: In an exemplary method, lesion [^18F]-FACBC uptake is visually compared to [^18F]-FACBC activity in the bone marrow. [^18F]-FACBC uptake higher than the bone marrow is considered as suspicious for myeloma. [^18F]-FACBC uptake similar or less than the bone marrow is considered as non-suspicious for myeloma.
FIG. 1: Coronal [^18F]-FACBC PET (left) and fused PET/CT (right) images of the lumbar vertebrae. […] The PET scan acquisition was started 5 minutes after administration of 319 MBq of [^18F]-FACBC.
In an aspect of the present disclosure, there is provided a method of diagnosing myeloma bone lesions in a subject comprising the steps of: • (a) administering a detectable amount of [^18F]-FACBC to the subject; • (b) acquiring one or more positron emission tomography (PET) scan images of the subject for a region of the subject that includes a potential myeloma bone lesion; and • (c) comparing [^18F]-FACBC uptake in the potential lesion against [^18F]-FACBC uptake in the bone marrow of the region of the subject; wherein lesion [^18F]-FACBC uptake which is higher than bone marrow [^18F]-FACBC uptake is indicative of the presence of myeloma bone lesions.

- [^18F]-FACBC uptake in area diagnosed as a lesion compared with surrounding bone marrow: higher than the surrounding bone marrow
SMILES: N[C@]1(C(=O)O)C[C@@H](F)C1 [[^18F]-FACBC, anti-1-amino-3-^18F-fluorocyclobutane-1-carboxylic acid]
